Legend:
[1] = system: HEK293-EV cells (ENBT1-deficient); assay: Radiolabelled substrate uptake in empty vector HEK293-EV cells; assay type: cell-based, human; settings: 2 seconds
Description: This is the minimum incubation time achievable with this oil-stop technique, and it was found in previous studies that these short incubation times were necessary to assess the kinetics of this transporter. The aqueous layer was removed via vacuum-powered aspirator, and the tube was washed with 1 mL of NMG buffer prior to removal of the oil layer. […] In transfected-HEK293 cell lines, total uptake was defined as uptake of radiolabeled substrate in cells overexpressing recombinant hENBT1 or mENBT1. […] This non-mediated component would include passive diffusion into the cells and radiolabelled substrate remaining extracellularly in the digested cell pellet after processing the samples. […] ENBT1-mediated uptake was calculated as total uptake minus the non-mediated uptake. Cell water volume (μL) was estimated by incubating cells with ^3H2O for 3 minutes, centrifuging the cells through the oil layer at ~10,000 g, assessing 100 μL of the supernatant for radioactive content, and then processing as described above. Total cellular water volume was determined from the ratio of the decays per minute of the cell pellet, to the decays per minute of the supernatant, allowing for inter-experimental normalization via calculation of picomoles of substrate accumulated per microliter of cell-associated water.

[2] = target: T1, endogenous ENBT1 expressed in MOLT-4 cells (Homo sapiens, UniProt Q8NBI5); assay: [3H]6-MP uptake in MOLT-4 cells; assay type: cell-based; settings: 30 μM [3H]6-MP
T1 construct: MOLT-4 cells express the SLC43A3 transcript and L1210 cells express the slc43a3 transcript; host or cells: MOLT-4
T1 sequence (Q8NBI5 1-491): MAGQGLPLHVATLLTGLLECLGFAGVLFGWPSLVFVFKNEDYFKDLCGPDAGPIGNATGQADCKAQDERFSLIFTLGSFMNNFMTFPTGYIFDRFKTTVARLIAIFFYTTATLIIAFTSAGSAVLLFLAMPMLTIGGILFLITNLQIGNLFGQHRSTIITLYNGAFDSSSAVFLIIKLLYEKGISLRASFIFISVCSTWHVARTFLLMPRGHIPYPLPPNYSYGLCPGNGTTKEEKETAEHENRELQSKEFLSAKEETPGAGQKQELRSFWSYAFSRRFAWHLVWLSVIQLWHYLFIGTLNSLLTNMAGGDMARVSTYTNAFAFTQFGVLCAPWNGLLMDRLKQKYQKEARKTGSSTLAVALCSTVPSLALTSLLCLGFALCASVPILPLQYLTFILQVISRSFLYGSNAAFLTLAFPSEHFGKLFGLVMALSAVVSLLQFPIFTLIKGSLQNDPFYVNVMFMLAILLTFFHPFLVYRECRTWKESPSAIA
Description: (§1) Harvested cells were suspended in nominally sodium-free N-methyl-D-glucamine (NMG) buffer (140 mM NMG, 5 mM KCl, 4.2 mM KHCO3, 0.36 mM K2HPO4, 0.44 mM KH2PO4, 0.5 mM MgCl2, 1.3 mM CaCl2, 10 mM HEPES, pH 7.4), to minimize potential contribution of sodium-dependent concentrative nucleoside transporter-mediated uptake. Additionally, cells were incubated for 15 minutes at room temperature with 10 μM dipyridamole (DY), an equilibrative nucleoside transporter (ENT) inhibitor, to block equilibrative nucleoside transporter–mediated uptake. The substrate uptake assay was initiated by adding 250 μL cell suspension to 250 μL [^3H] labeled substrate, layered over 21:4 silicone:mineral oil (200 μL) in 1.5 mL microcentrifuge tubes (conducted at room temperature). […] This is the minimum incubation time achievable with this oil-stop technique, and it was found in previous studies that these short incubation times were necessary to assess the kinetics of this transporter. […] The resulting cell pellet was digested in 250 μL 1 M NaOH overnight (~16 hours), with 220 μL aliquots of digested cells assessed for radioactive content using standard liquid scintillation counting techniques in a Beckman Coulter LS6500 scintillation system (Brea, CA).
(§2) In transfected-HEK293 cell lines, total uptake was defined as uptake of radiolabeled substrate in cells overexpressing recombinant hENBT1 or mENBT1. […] ENBT1-mediated uptake was calculated as total uptake minus the non-mediated uptake.
(§3) Cell water volume (μL) was estimated by incubating cells with ^3H2O for 3 minutes, centrifuging the cells through the oil layer at ~10,000 g, assessing 100 μL of the supernatant for radioactive content, and then processing as described above. Total cellular water volume was determined from the ratio of the decays per minute of the cell pellet, to the decays per minute of the supernatant, allowing for inter-experimental normalization via calculation of picomoles of substrate accumulated per microliter of cell-associated water.

[3] = target: T2, endogenous ENBT1 expressed in L1210 cells (Mus musculus, UniProt A2AVZ9); assay: [3H]6-MP uptake in L1210 cells; assay type: cell-based, murine; settings: 30 μM [3H]6-MP
T2 construct: MOLT-4 cells express the SLC43A3 transcript and L1210 cells express the slc43a3 transcript; host or cells: L1210
T2 sequence (A2AVZ9 1-502): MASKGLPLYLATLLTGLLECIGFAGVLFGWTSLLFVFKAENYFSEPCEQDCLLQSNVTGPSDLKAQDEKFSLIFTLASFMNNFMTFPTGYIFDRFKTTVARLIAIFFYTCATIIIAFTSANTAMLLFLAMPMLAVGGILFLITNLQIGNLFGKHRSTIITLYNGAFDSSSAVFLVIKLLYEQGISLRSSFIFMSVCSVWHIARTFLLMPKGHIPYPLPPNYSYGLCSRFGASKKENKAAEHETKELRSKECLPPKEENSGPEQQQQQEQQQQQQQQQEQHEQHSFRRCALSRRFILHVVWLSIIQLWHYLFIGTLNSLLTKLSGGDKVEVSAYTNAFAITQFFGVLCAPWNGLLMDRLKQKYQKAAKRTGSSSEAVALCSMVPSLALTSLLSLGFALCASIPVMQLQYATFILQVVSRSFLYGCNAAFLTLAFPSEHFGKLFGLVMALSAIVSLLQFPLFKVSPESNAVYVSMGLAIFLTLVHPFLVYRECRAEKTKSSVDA
Description: as §1, §2, §3

Row | k value of time-dependent uptake [2] [s⁻¹] | uptake plateau [2] | k value of time-dependent uptake [3] [s⁻¹] | uptake plateau [3] | effect on uptake of [3H]6-MP ([2]; 5 mM adenine) | effect on uptake of [3H]6-MP ([3]; 5 mM adenine) | SMILES | uptake of radiolabelled substrate [1]
1 | 0.34 ± 0.09 | roughly 30 pmol/μL | 0.22 ± 0.05 | roughly 30 pmol/μL | – | – | Sc1ncnc2nc[nH]c12 [6-MP, 6-Mercaptopurine] | minimal uptake
2 | – | – | – | – | significantly inhibited | significantly inhibited | Nc1ncnc2[nH]cnc12 [adenine, Adenine] | minimal uptake
